Patent EP0888322B1, “ELECTROPHILIC KETONES FOR THE TREATMENT OF HERPESVIRUS INFECTIONS” (G.D. SEARLE & CO., priority 1996, dated 1997)

Columns and labels:
RC256 = assay: Recombinant human cytomegalovirus antiviral assay (RC256, beta-galactosidase); format: cell-based, HCMV; settings: Human betaherpesvirus 5, read-out: Antiviral Activity EC50
Description: (§1) These complimentary assays tested the ability of a compound to inhibit the production of new virus and the toxicity of the compound to the host cells. It was important that both assays be performed simultaneously in order to compare the results directly since, toxicity may indirectly reduce viral yield.
(§2) In this assay, HCMV replication was monitored by the production of E. coli beta-galactosidase by the engineered virus RC256 [Spaete and Mocarski, Proc.Nat.Acad.Sci., 84, 7213 (1987)]. One antiviral assay and one cytotoxicity assay were done for each compound. Dilutions of test compounds and infection of cells in a 96-well plate was essentially as described above for the HCMV ELISA except for the following. Human foreskin fibroblasts at 3.5 x 10^5 cells per milliliter were infected in solution with RC256 at 0.05 pfu per cell. Compounds and cells were incubated 3 days and processed at […]. For the beta galactosidase detection, the supernatant was aspirated from the antiviral assay plates and 50 µl Reporter Lysis Buffer (Promega, diluted to 1X with water) was added per well. The plates were incubated at room temperature at least 30 minutes and plates were frozen at -20 °C at this point for later processing. 50 µl of 2X assay buffer [120 mM Na2HPO4, 80 mM NaH2PO4, 2 mM MgCl2, 100 mM 2-mercaptoethanol, 4.4 mM ONPG (Sigma)] was added per well and incubated at room temperature 30 to 45 minutes. The reaction was stopped with 100 µl 1M CAPS buffer, pH = 11.0, per well and the optical density was read at 410 nanometers. Ganciclovir was used as a positive control and the EC50 was determined as described above for the HCMV ELISA. Results (EC50/TD50) are included in Table 1.

[1] = target: T1, Bovine pancreas α-chymotrypsin (Bos taurus, UniProt P00766, DEL14-15/DEL147-148); assay: Chymotrypsin assay; format: biochemical; settings: read-out: Chymotrypsin % @ Conc.
T1 construct: Bovine pancreas α-chymotrypsin (type II, Sigma); purchased Sigma type II; host or cells: bovine pancreas
Experimental: The chymotrypsin assay was modified from the method of Delmar et al [Anal. Biochem., 99, 316-320 (1979)]. Bovine pancreas α-chymotrypsin (type II, Sigma) was dissolved in 0.001 N HCl at 1 mg/ml and further diluted 1/600 in assay buffer (0.1 M Tris, pH 7.8, containing 0.1 M CaCl2) before use. 20 µl of test compound in DMSO (or DMSO alone), 100 µl of assay buffer and 30 µl of enzyme were added to 96 well plates, mixed and pre-incubated for 30 minutes at ambient temperature. Reaction was initiated by addition of 50 µl of 0.2 mM N-succinyl-Ala-Ala-Pro-Phe-p-nitroanilide (Sigma; 2 mM in DMSO diluted 1/10 in assay buffer before use). The increase in absorbance at 405 nm was monitored for 10 minutes with a Biotek EL340 plate reader.

[2] = target: T2, Human leukocyte elastase (HLE) (Homo sapiens, UniProt P08246); assay: Human leukocyte elastase assay; format: biochemical; settings: read-out: HLE % @ Conc.
T2 construct: gift of R. Senior, Washington University
T2 sequence (P08246 30-267): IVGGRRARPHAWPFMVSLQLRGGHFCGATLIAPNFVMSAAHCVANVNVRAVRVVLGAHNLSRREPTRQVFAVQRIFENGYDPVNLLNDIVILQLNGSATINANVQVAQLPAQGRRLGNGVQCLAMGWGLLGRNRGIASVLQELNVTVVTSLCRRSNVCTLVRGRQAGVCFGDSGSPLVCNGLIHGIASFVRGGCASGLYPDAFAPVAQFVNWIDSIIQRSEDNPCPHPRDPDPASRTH
Experimental: Human leukocyte elastase (HLE) (gift of R. Senior, Washington University) was dissolved in saline at 1 mg/ml and further diluted 1/20 in assay buffer (0.2 M Tris, pH 8.0) before use. 10 µl of test compound in DMSO (or DMSO alone), 100 µl of assay buffer and 50 µl of enzyme were added to 96 well plates, mixed and pre-incubated for 30 minutes at ambient temperature. Reaction was initiated by addition of 40 µl of 2.5 mM methoxysuccinyl-Ala-Ala-Pro-Val-p-nitroanilide (Sigma; 25 mM in DMSO diluted 1/10 in assay buffer before use). The increase in absorbance at 405 nm was monitored for 10 minutes with a Biotek EL340 plate reader.

in vitro [3] = format: cell-based; settings: human
Description: as §1
(§3) Viral yield was estimated by measuring the amount of a viral antigen produced 4 days post infection with a monoclonal antibody to an abundant "immediate early" viral protein. An enzyme-linked (horseradish peroxidase) secondary antibody specific to the primary (mouse) antibody was used to measure the amount of viral antigen. Test compounds were diluted to 2-times the desired final concentration in DMEM + 5% FBS. One hundred microliters of this solution was placed in each well of a 96-well plate. This was performed once for the antiviral 96-well plate and again for a cytotoxicity plate. Two controls were also included for both plates; a no drug control and a no virus control. Ganciclovir was routinely tested in antiviral and cytotoxicity plates as a reference standard because it has known antiviral activity for HCMV. All cells were prepared by harvesting human foreskin fibroblasts, with trypsin and re-suspending at a concentration of 5 X 10^5 cells per ml in DMEM. Infected cells were prepared by infecting these with HCMV (strain AD169) at a multiplicity of infection = 0.2. One hundred microliters of uninfected cells (5 x 10^4 cells) were added to the appropriate wells of the cytotoxicity plate. In a similar manner 100 µl of infected cells (5 x 10^4 cells) were added to the appropriate wells of the antiviral plate. Additionally, uninfected cells not treated with test compound were included as controls on the antiviral plate. Plates were incubated for 96 hours at 37°C in 5% CO2 atmosphere and processed to measure the amount of viral antigen and toxicity.
as §2

[4] = target: HCMV protease (Assemblin) (Human cytomegalovirus, UniProt P16753); assay: Enzymatic assay for HCMV protease (Assemblin) inhibitors, chromogenic pNA substrate; format: biochemical
Sequence of HCMV protease (Assemblin) (P16753 1-256): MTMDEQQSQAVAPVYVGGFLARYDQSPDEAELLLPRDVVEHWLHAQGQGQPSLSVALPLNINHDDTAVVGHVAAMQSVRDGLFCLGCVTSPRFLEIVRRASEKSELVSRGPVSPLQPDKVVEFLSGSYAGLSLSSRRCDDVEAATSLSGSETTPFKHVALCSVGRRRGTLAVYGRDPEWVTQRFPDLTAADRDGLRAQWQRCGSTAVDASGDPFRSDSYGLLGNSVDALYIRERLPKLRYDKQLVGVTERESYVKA
Experimental: Assemblin protease activity was determined using a chromogenic para-nitroanilide (pNA) substrate based on the hCMV maturation cleavage site, succinyl-AGVVNA-paranitroanilide. […] Potential protease inhibitors were dissolved in DMSO and 10 µL were added to the wells of a 96-well plate (Dynatech, Immulon 1). Enzyme was diluted to 4.8 µg/mL in assay buffer (10 mM sodium phosphate, pH 7.4, 150 mM sodium acetate, 0.1% CHAPS, 20% glycerol) and 100 µL were added to each well. Following a 30 minute incubation at room temperature, 50 µL substrate (1 part 20 mM succinyl-AGVVNA-paranitroanilide (SEQID:1) in DMSO plus 9 parts assay buffer) were added, and periodic readings taken in a microplate reader at 405 nm relative to 650 nm. Activities were expressed as milliabsorbance unit (mAU) change per minute. Inhibitor potency was determined by comparison with incubations lacking inhibitor, which under these conditions gave an increase of 0.5-1 mAU/min. No increase was seen when enzyme was omitted. Results [IC50 (µM)] are included in Table 1.
The construction also encoded six additional histidine residues at the amino terminus of the protease. These additional histidine residues provided an affinity ligand by which it was purified using nickel-nitriloacetic acid-agarose (Qiagen).
The purified protease was stored as a 1-3 mg/ml stock solution in 20 mM HEPES buffer, pH 7.4; containing 20% (v/v) glycerol. This stock was diluted with assay buffer to 4.8 µg/ml. A 100 µL aliquot of this solution was used in the enzyme reaction.
A specific substrate was synthesized based on the cleavage specificity of HCMV protease at the "maturation site" of the assembly protein (F. Liu and B. Roizman, J. Virol., 65, 5149 (1991), and A. Welch, et al, J. Virol., 65, 4091 (1991)). The assembly protein maturation site has the sequence ...AGVVNA*SCRLATA...; the substrate used was succinyl-[…] (SEQID:1) which was prepared by standard peptide synthetic methods such as that described in Bodansky and Bodansky, "The Practice of Peptide Synthesis" (1984), and was stored as a stock solution at 20 mM in dimethyl sulfoxide. This was diluted 10-fold with assay buffer to give a concentration of 2 mM just before use. An aliquot of 50 µL was used in the reaction
An assay Buffer (10 mM sodium phosphate buffer, pH 7.4; 150 mM sodium acetate; 0.1% CHAPS; and 20% (v/v) glycerol) was used to dilute stock solutions of enzyme and substrate.

HCMV (strain AD169) = assay: Antiviral assay, ELISA for HCMV antigens; format: cell-based; settings: Human betaherpesvirus 5, AD169, 96 hours
Description: as §1
(§4) Viral yield was estimated by measuring the amount of a viral antigen produced 4 days post infection with a monoclonal antibody to an abundant "immediate early" viral protein. An enzyme-linked (horseradish peroxidase) secondary antibody specific to the primary (mouse) antibody was used to measure the amount of viral antigen. Test compounds were diluted to 2-times the desired final concentration in DMEM + 5% FBS. One hundred microliters of this solution was placed in each well of a 96-well plate. This was performed once for the antiviral 96-well plate and again for a cytotoxicity plate. Two controls were also included for both plates; a no drug control and a no virus control. […]
(§5) The following was performed on the antiviral plate only. […] The reaction was stopped by adding 100 µL of phosphoric acid and the OD at 450 nm recorded. […] Antiviral activity was calculated by comparing the amount of viral antigen produced in drug treated wells with that produced in wells absent of drug. […]

in vitro [5] = format: cell-based; settings: human, foreskin fibroblasts
Description: as §1
as §3, with “One hundred microliters of uninfected cells (5 x 10^4 cells) were added to the appropriate wells of the cytotoxicity plate. In a similar manner 100 µl of infected cells (5 x 10^4 cells) were added to the appropriate wells of the antiviral plate. Additionally, uninfected cells not treated with test compound were included as controls on the antiviral plate. Plates were incubated for 96 hours at 37°C in 5% CO2 atmosphere and processed to measure the amount of viral antigen and toxicity.” left out

HCMV = HCMV antiviral assay, format (RC256 or ELISA) not given; format: cell-based; settings: Human betaherpesvirus 5, read-out: Antiviral Activity EC50
Description: as §1
as §4, with “plate.” for “plate. Two controls were also included for both plates; a no drug control and a no virus control.”
as §5
In this assay, HCMV replication was monitored by the production of E. coli beta-galactosidase by the engineered virus RC256 [Spaete and Mocarski, Proc.Nat.Acad.Sci., 84, 7213 (1987)]. […]

[6] = read-out: Assemblin Protease % @ Conc.

## O=C(CCc1ccccc1)Nc1cc(F)ccc1C(=O)C(F)(F)F [Example 2, N-[5-fluoro-2-(2,2,2-trifluoro-1-oxoethyl)phenyl]benzenepropanamide]
RC256
  EC50: 57 µM
[1]
  inhibition at 100 µM: 48%
[2]; @ 100 µM
  inhibition at 100 µM: 26%
In vitro [3]; foreskin fibroblasts
  CC50: > 100 µM

## O=C(Nc1ccccc1C(=O)C(F)(F)F)c1cnccn1 [Example 5, N-[2-(2,2,2-trifluoro-1-oxoethyl)phenyl]pyrazine-2-carboxamide]
RC256
  EC50: 55 µM
[1]
  inhibition at 300 µM: 0%
In vitro [3]; foreskin fibroblasts
  CC50: > 100 µM

## O=C(Nc1ccccc1C(=O)C(F)(F)F)OCc1ccccc1 [Example 6, phenylmethyl N-[2-(2,2,2-trifluoro-1-oxoethyl)phenyl]carbamate]
[1]
  inhibition at 100 µM: 21%

## O=C(Nc1ccc(F)cc1C(=O)C(F)(F)F)c1ccco1 [Example 8, N-[4-fluoro-2-(2,2,2-trifluoro-1-oxoethyl)phenyl] furan-2-carboxamide]
[4]; [6]
  inhibition at 33 µM: 18%

## O=C(Nc1ccccc1C(=O)C(F)(F)F)c1ccccn1 [Example 11, N-[2-(2,2,2-trifluoro-1-oxoethyl)phenyl]pyridine-2-carboxamide]
[4]; [6]
  inhibition at 33 µM: 40%

## O=C(Nc1ccccc1C(=O)C(F)(F)F)C(F)(F)F [Example 10, α,α,α-trifluoro-N-[2-(2,2,2-trifluoro-1-oxoethyl)phenyl]acetamide]
[4]; @ 10 µM, read-out: Assemblin Protease % @ Conc.
  inhibition at 10 µM: 39%
HCMV (strain AD169)
  EC50: > 100 µM
In vitro [5]
  CC50 at 96 h: > 100 µM
[1]
  inhibition at 100 µM: 49%

## O=C(Nc1ccccc1C(=O)C(F)(F)F)c1cc2ccccc2s1 [Example 9, N-[2-(2,2,2-trifluoro-1-oxoethyl)phenyl]-1-benzothiophene-2-carboxamide]
RC256
  EC50: 30 µM
[1]
  inhibition at 100 µM: 48%
In vitro [3]; foreskin fibroblasts
  CC50: > 100 µM

## COc1ccccc1C(=O)Nc1ccccc1C(=O)C(F)(F)F [Example 12, N-[2-(2,2,2-trifluoro-1-oxoethyl)phenyl]2-methoxybenzamide]
[4]; [6]
  inhibition at 33 µM: 14%

## O=C(Nc1ccc(I)cc1C(=O)C(F)(F)F)c1ccco1 [Example 13, N-[4-iodo-2-(2,2,2-trifluoro-1-oxoethyl)phenyl]furan-2-carboxamide]
[1]; @ 33 µM
  inhibition at 33 µM: 39%
[2]; @ 24 µM
  inhibition at 24 µM: 50%
HCMV
  EC50: 28 µM
In vitro [3]; human foreskin fibroblasts
  CC50: > 100 µM

## O=C(Nc1ccccc1C(=O)C(F)(F)F)c1ccco1 [Example 1, N-[2-(2,2,2-trifluoro-1-oxoethyl)phenyl]furan-2-carboxamide]
RC256
  EC50: 45 µM
[2]; @ 300 µM
  inhibition at 300 µM: 25%
In vitro [3]; foreskin fibroblasts
  CC50: > 100 µM

## COc1ccccc1C(=O)Nc1ccccc1C(=O)C(F)(F)C(=O)NC(C)C [Example 17, N-[2-(3-(2-propylamino)-3-oxo-2,2-difluoro-1-oxopropyl)phenyl]2-methoxyphenylcarboxamide]
[1]
  inhibition at 300 µM: 0%

## N-[2,2,2-trifluoro-1-oxoethyl)phenyl]indolyl-2-carboxamide [Example 15]
[4]; @ 100 µM
  percent inhibition: 30% @ 100

## O=C(CCc1ccccc1)Nc1ccccc1C(=O)C(F)(F)F [Example 4, N-[2-(2,2,2-trifluoro-1-oxoethyl)phenyl]benzenepropanamide]
[1]
  inhibition at 100 µM: 11%

## O=C(CCc1ccccc1)Nc1cc([N+](=O)[O-])ccc1C(=O)C(F)(F)F [Example 7, N-[5-nitro-2-[2,2,2-trifluoro-1-oxoethyl)phenyl]benzenepropanamide]
[4]; [6]
  inhibition at 33 µM: 84%
HCMV (strain AD169)
  EC50: 16 µM
In vitro [5]
  CC50 at 96 h: > 100 µM
[1]
  inhibition at 100 µM: 27%
